Measurements published in ChEMBL document CHEMBL1201862, “PubChem BioAssay data set” (2004).
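A five-concentration, 48-hour dose response in 96-well plates underlies each endpoint, interpolated linearly between surrounding concentrations. Here, GI50 denotes the concentration required for 50% inhibition of growth.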 Active and inactive are the calls of the source. No stated cut-off is given here; in the data, active = GI50 up to about 1.1 µM and inactive = higher.

How the values were obtained:
Test in all cases: inhibition of tumour cell growth, NCI panel, 48 h
A549 = test system: A549
KM-20L2 = test system: KM-20L2
SK-MEL-28 = test system: SK-MEL-28
TK-10 = test system: TK-10
UO-31 = test system: UO-31
UACC-257 = test system: UACC-257
OVCAR-5 = test system: OVCAR-5
DLD-1 = test system: DLD-1
IGROV-1 = test system: IGROV-1
HCT-116 = test system: HCT-116
SF-268 = test system: SF-268
HL-60 = test system: HL-60
SR = test system: SR
SK-OV-3 = test system: SK-OV-3
ACHN = test system: ACHN
SN12C = test system: SN12C
CCRF-CEM = test system: CCRF-CEM
NCI-H226 = test system: NCI-H226

| SMILES | GI50 (A549) | GI50 (KM-20L2) | GI50 (SK-MEL-28) | GI50 (TK-10) | GI50 (UO-31) | GI50 (UACC-257) | GI50 (OVCAR-5) | GI50 (DLD-1) | GI50 (IGROV-1) | GI50 (HCT-116) | GI50 (SF-268) | GI50 (HL-60) | GI50 (SR) | GI50 (SK-OV-3) | GI50 (ACHN) | GI50 (SN12C) | GI50 (CCRF-CEM) | GI50 (NCI-H226) |
| --- | --- | --- | --- | --- | --- | --- | --- | --- | --- | --- | --- | --- | --- | --- | --- | --- | --- | --- |
| CN(C(=O)C12C3C4C5C3C1(C(=O)O)C5C42)C(C)(C)C (centres undefined) | 42.2 µM (inactive) | > 100 µM (inactive) | > 100 µM (inactive) | > 100 µM (inactive) | > 100 µM (inactive) | > 100 µM (inactive) | > 100 µM (inactive) | 23.7 µM (inactive) | > 100 µM (inactive) | 34.2 µM (inactive) | > 100 µM (inactive) | 17.1 µM (inactive) | > 100 µM (inactive) | > 100 µM (inactive) | > 100 µM (inactive) | > 100 µM (inactive) | 76.6 µM (inactive) | > 100 µM (inactive) |
| C[n+]1c2ccccc2c(CNCC(=O)O)c2ccccc21 | 3.76 µM (inactive) | 0.327 µM (active) |  | 0.708 µM (active) | 10.9 µM (inactive) | 10.9 µM (inactive) | 15.2 µM (inactive) | 0.659 µM (active) | 5.96 µM (inactive) | 0.39 µM (active) | 0.459 µM (active) | 0.187 µM (active) | 0.238 µM (active) | 4.74 µM (inactive) | 0.61 µM (active) | 0.562 µM (active) |  | 3.3 µM (inactive) |
| COc1cccc(C2C(C(=O)Nc3cc(=O)n(C)c(=O)n3C)=C(C)NC(C)=C2C(=O)Nc2cc(=O)n(C)c(=O)n2C)c1O | > 100 µM (inactive) | > 100 µM (inactive) | > 100 µM (inactive) | > 100 µM (inactive) | > 100 µM (inactive) | > 100 µM (inactive) | > 100 µM (inactive) | > 100 µM (inactive) | > 100 µM (inactive) |  | > 100 µM (inactive) | > 100 µM (inactive) |  | > 100 µM (inactive) | > 100 µM (inactive) | > 100 µM (inactive) | 86.7 µM (inactive) | > 100 µM (inactive) |
| CCOc1ccc(NC(=O)CC2C(=O)Nc3ccccc3[S+]2[O-])cc1 (centres undefined) | > 94 µM (inactive) | > 46.5 µM (inactive) | > 100 µM (inactive) | > 71.4 µM (inactive) | > 52 µM (inactive) | > 100 µM (inactive) | > 100 µM (inactive) | > 100 µM (inactive) | > 90.6 µM (inactive) | > 85.3 µM (inactive) | 49.7 µM (inactive) | > 100 µM (inactive) | 29.5 µM (inactive) | > 100 µM (inactive) | > 52.7 µM (inactive) | > 71 µM (inactive) | > 100 µM (inactive) | > 64.7 µM (inactive) |
| CN(C)/N=N/c1ccc(S(N)(=O)=O)cc1 | > 100 µM (inactive) | > 100 µM (inactive) | > 100 µM (inactive) | > 100 µM (inactive) | > 100 µM (inactive) | > 100 µM (inactive) | > 100 µM (inactive) | > 100 µM (inactive) | > 100 µM (inactive) | > 100 µM (inactive) | > 100 µM (inactive) |  | > 100 µM (inactive) | > 100 µM (inactive) | > 100 µM (inactive) | > 100 µM (inactive) | 6.43 µM (inactive) | > 100 µM (inactive) |
| Cc1ccc(S(=O)(=O)NC2(C=O)CCC(C(C)(C)C)CC2)cc1 (centres undefined) | 35.1 µM (inactive) | 28.8 µM (inactive) |  | 33.8 µM (inactive) | 38.1 µM (inactive) | 34.9 µM (inactive) | 79.3 µM (inactive) | 35.2 µM (inactive) | 37.7 µM (inactive) | 23.8 µM (inactive) | 38.9 µM (inactive) | 20.1 µM (inactive) | 15.2 µM (inactive) | > 100 µM (inactive) | 32.5 µM (inactive) | 26.1 µM (inactive) |  | > 100 µM (inactive) |
| C[Si](C)(c1ccccc1)C1CC(=O)CC(=O)C1 | > 100 µM (inactive) | > 100 µM (inactive) | > 100 µM (inactive) | > 100 µM (inactive) | 19.9 µM (inactive) | > 100 µM (inactive) | > 100 µM (inactive) | > 100 µM (inactive) | 22.7 µM (inactive) | > 100 µM (inactive) | > 100 µM (inactive) | 21.3 µM (inactive) | > 100 µM (inactive) | > 100 µM (inactive) | > 100 µM (inactive) | > 100 µM (inactive) | 38.4 µM (inactive) | > 100 µM (inactive) |
| COc1nc2c(c(O)c(C)c(=O)n2OC2OCC(OC(C)=O)C(OC(C)=O)C2OC(C)=O)c(=O)n1C (centres undefined) | > 100 µM (inactive) | > 100 µM (inactive) | > 100 µM (inactive) | > 100 µM (inactive) | > 100 µM (inactive) |  | > 100 µM (inactive) | > 100 µM (inactive) | > 100 µM (inactive) | > 100 µM (inactive) | > 100 µM (inactive) |  | > 100 µM (inactive) |  | > 100 µM (inactive) | > 100 µM (inactive) | > 100 µM (inactive) | > 100 µM (inactive) |
